According to PubChem BioAssay (NCI):
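Each compound was tested at five concentrations against cells in 96-well plates for 48 hours. TGI is the concentration that stops growth completely.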

Key:
Assay in all cases: NCI tumour cell line growth inhibition, 48 h
786-0 renal = system: 786-0 renal
A498 renal = system: A498 renal
BT-549 breast = system: BT-549 breast
CCRF-CEM leukemia = system: CCRF-CEM leukemia
EKVX NSCLC = system: EKVX NSCLC
HOP-62 NSCLC = system: HOP-62 NSCLC
HS 578T breast = system: HS 578T breast
MCF7 breast = system: MCF7 breast
MDA-N = system: MDA-N
NCI-H460 lung = system: NCI-H460 lung
OVCAR-4 ovarian = system: OVCAR-4 ovarian
OVCAR-5 ovarian = system: OVCAR-5 ovarian
OVCAR-8 ovarian = system: OVCAR-8 ovarian
SF-268 CNS = system: SF-268 CNS
SK-MEL-5 melanoma = system: SK-MEL-5 melanoma
SN12C renal = system: SN12C renal
SNB-75 CNS = system: SNB-75 CNS
SW-620 colon = system: SW-620 colon
UACC-62 melanoma = system: UACC-62 melanoma
UO-31 renal = system: UO-31 renal

SMILES	TGI (786-0 renal) [µM]	TGI (A498 renal) [µM]	TGI (BT-549 breast) [µM]	TGI (CCRF-CEM leukemia) [µM]	TGI (EKVX NSCLC) [µM]	TGI (HOP-62 NSCLC) [µM]	TGI (HS 578T breast) [µM]	TGI (MCF7 breast) [µM]	TGI (MDA-N) [µM]	TGI (NCI-H460 lung) [µM]	TGI (OVCAR-4 ovarian) [µM]	TGI (OVCAR-5 ovarian) [µM]	TGI (OVCAR-8 ovarian) [µM]	TGI (SF-268 CNS) [µM]	TGI (SK-MEL-5 melanoma) [µM]	TGI (SN12C renal) [µM]	TGI (SNB-75 CNS) [µM]	TGI (SW-620 colon) [µM]	TGI (UACC-62 melanoma) [µM]	TGI (UO-31 renal) [µM]
CCOC(=O)C(CCN1CCC2(CC1)C(=O)N(C)CN2c1ccccc1)C(=O)OCC	> 100	> 100	> 100	> 100	> 100	> 100	> 100	> 100	> 100	> 100	> 100	> 100	> 100	> 100	> 100	> 100	> 100	> 100	> 100	> 100
CCOC(=O)Cc1ccc(Nc2nc3ccccc3nc2C(=O)OCC)cc1	> 100	86.7	> 100	> 100	> 100	> 100	88.9	> 100	> 100	> 100	> 100	> 100	> 100	> 100	> 100	> 100	38.3	> 100	> 100	41.3
O=C(O)CCSC(CC1(c2ccc(Cl)cc2)NC(=O)CCS1)c1ccccc1 (stereo not given)	20.9	42.9	31.1	24.8	46.9	44.1	33.4	> 55.3	31.8	64.7	29.3	37	39.5	38.4	48	33.4	32.3	41.7	39.7	> 54.8
CC(Oc1ccc(Cl)cc1Cl)C(=O)NN1C(=O)CSC1c1ccccc1 (stereo not given)	> 100	> 100	46.5	> 100	> 100	> 100	> 100	> 100	> 100	> 100	> 100	> 100	> 100	> 100	> 100	> 100	> 100	> 100	> 100	> 100
CC(C)=CCC/C(C)=C/CC/C(C)=C/CC(CO)N(C)CC/C=C(\C)CCC=C(C)C (stereo not given)	4.89	28.4	27.5	> 25.2	23.4	15	16.7	4.8	12.4	15.8	22.4	21.2	20.2	26.7	23.2	17.4	25	13.7	29.9	17.9
CCSC1=N/C(=C\c2ccc(N(C)C)cc2)C(Cl)=N1	> 100	> 100	> 100	> 100	> 100	> 100	> 100	> 100	> 100	> 100	> 100	> 100	> 100	> 100	> 100	> 100	> 100	> 100	> 100	> 100
CCOC(=O)/C=C(/C(=O)OCC)n1cnc2c(=O)[nH]c(NC(C)=O)nc21	> 100	> 100	> 100	> 100	> 100	> 100	> 100	> 100	> 100	> 100	> 100	> 100	> 100	> 100	> 100	> 100	> 100	> 100	> 100	> 100
O=c1nc(N2CCNCC2)oc2cc(Cl)oc(=O)c12	8.66	37.9	6.26	47.8	19.4	14	5.9	17.8	9.06	22.4	21.6	30	5.67	15.9	19	33.1	17.4	21.1	25.2	23
